Structures are written as SMILES. pIC50: −log10 of the molar value. A value given as a limit tells only on which side of the number the result lay.

Here are results for 15 molecules from ChEMBL document CHEMBL1130974, “High affinity phenylglycinol-based NK1 receptor antagonists” (Bioorg Med Chem Lett, 1998).

One data set has as its target Substance-P receptor (Homo sapiens, UniProt P25103). The data set can be described thus: Affinity towards hNK1 receptor by displacement of [125I]- Substance P from hNK1 receptor expressed in CHO cells. Format: cell-based.
A short description of data set [1]: Steady state volume of distribution dosing at 3 mg/kg iv. Format: ADME, organism-based. Details: dose 3 mg/kg, route intravenous. Particulars: rat, in vivo.
A short description of data set [2]: Plasma elimination half-life was determined. The data set is classed as ADME, organism-based. Particulars: rat.
The nature of data set [3]: Tmax was determined. To be noted: rat, in vivo. The data set is classed as ADME, organism-based.
The nature of data set [4]: Oral bioavailability. The data set is classed as ADME, organism-based. To be noted: rat, in vivo.
Data set [5] is described as follows: Maximal plasma drug concentration was determined. The data set is classed as ADME, organism-based. To be noted: rat.
A further data set deals with T1, Substance-K receptor (Homo sapiens, UniProt P21452).
T1 sequence (P21452 whole entry): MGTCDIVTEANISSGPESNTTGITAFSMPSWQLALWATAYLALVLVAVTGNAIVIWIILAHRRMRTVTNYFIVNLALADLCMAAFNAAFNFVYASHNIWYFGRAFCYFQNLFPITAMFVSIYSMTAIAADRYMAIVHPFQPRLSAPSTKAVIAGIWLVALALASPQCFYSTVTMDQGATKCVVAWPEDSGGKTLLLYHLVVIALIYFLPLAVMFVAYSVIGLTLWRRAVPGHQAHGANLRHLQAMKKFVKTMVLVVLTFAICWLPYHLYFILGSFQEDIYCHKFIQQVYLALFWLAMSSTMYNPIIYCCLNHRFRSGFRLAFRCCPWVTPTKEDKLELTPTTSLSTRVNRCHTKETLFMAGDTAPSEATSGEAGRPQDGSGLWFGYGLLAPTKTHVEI
The data set can be described thus: Binding affinity for Tachykinin receptor 2.

A further data set has as its target T2, Neuromedin-K receptor (Homo sapiens, UniProt P29371).
T2 sequence (P29371 whole entry): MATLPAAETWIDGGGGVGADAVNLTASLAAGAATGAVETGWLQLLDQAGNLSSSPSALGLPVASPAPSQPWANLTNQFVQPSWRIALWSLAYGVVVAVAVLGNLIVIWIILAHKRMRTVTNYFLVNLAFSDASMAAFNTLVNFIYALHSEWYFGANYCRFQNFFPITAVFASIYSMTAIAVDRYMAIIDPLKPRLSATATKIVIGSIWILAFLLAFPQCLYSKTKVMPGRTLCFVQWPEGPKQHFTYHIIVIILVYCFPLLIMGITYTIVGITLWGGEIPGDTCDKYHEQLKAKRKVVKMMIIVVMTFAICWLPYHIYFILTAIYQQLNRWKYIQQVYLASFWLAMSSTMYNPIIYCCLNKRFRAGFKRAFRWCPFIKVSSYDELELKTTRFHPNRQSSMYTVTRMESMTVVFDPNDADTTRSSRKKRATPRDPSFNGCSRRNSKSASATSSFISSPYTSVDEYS
The data set is described as follows: Binding affinity for Tachykinin receptor 3.

Data set [6] in a line: Low affinity binding to calcium channel.

Chain of Substance-P receptor (P25103 whole entry): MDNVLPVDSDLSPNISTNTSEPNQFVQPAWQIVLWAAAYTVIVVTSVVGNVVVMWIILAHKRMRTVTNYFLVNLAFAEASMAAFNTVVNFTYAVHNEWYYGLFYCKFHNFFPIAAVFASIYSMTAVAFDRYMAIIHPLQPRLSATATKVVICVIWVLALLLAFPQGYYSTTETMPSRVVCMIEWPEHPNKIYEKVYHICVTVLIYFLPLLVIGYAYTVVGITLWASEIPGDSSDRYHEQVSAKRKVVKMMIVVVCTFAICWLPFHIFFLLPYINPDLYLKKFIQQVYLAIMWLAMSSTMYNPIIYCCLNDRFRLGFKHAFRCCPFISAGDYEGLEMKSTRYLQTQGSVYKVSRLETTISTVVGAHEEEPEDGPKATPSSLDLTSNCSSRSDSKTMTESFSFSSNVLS

Consider `Cn1nnc(CN[C@H](COCc2cc(C(F)(F)F)cc(C(F)(F)F)c2)c2ccccc2)n1`, for which, on Substance-P receptor, the pIC50 was 7.82.

Consider `Cn1nnnc1CN[C@H](COCc1cc(C(F)(F)F)cc(C(F)(F)F)c1)c1ccccc1`, for which, on Substance-P receptor, the negative logarithm of the IC50 (pIC50) is 8.00.

The molecule `CN(Cc1n[nH]c(O)n1)[C@H](COCc1cc(C(F)(F)F)cc(C(F)(F)F)c1)c1ccccc1` yielded a Vd in [1] of 3.5 L/kg. Also, the half-life in data set [2] is 48 min. Besides, in [3], the time of peak concentration (Tmax) was 30 min. For the same molecule, the bioavailability in data set [4] stood at 16%. In data set [5], this molecule displayed a Cmax of 0.097 µg/mL. Moreover, the pIC50 on Substance-P receptor was 9.37; at Substance-K receptor it was below 6.00; at Neuromedin-K receptor it was below 6.00; in data set [6] it was below 3.00.

On to `Cc1cc(Cl)cc(COC[C@H](c2ccccc2)N(C)Cc2n[nH]c(O)n2)c1`, for which, at Substance-P receptor, the pIC50 was 8.66.

Molecule `CN(Cc1nc[nH]n1)[C@H](COCc1cc(C(F)(F)F)cc(C(F)(F)F)c1)c1ccccc1` had a pIC50 at Substance-P receptor of 8.85.

With `Cc1cc(COC[C@H](c2ccccc2)N(C)Cc2n[nH]c(=O)[nH]2)cc(C(C)(C)C)c1`, at Substance-P receptor, the pIC50 is 9.38.

On Substance-P receptor, `CN(Cc1nn[nH]n1)[C@H](COCc1cc(C(F)(F)F)cc(C(F)(F)F)c1)c1ccccc1` showed a pIC50 of 7.15.

On to `CN(Cc1nnnn1C)[C@H](COCc1cc(C(F)(F)F)cc(C(F)(F)F)c1)c1ccccc1`, for which the pIC50 on Substance-P receptor was 7.89.

Regarding `CCN(Cc1n[nH]c(O)n1)[C@H](COCc1cc(C(F)(F)F)cc(C(F)(F)F)c1)c1ccccc1`, the pIC50 on Substance-P receptor is 9.10.

In the case of `CN(Cc1n[nH]c(O)n1)[C@H](COCc1cc(Cl)cc(Cl)c1)c1ccccc1`, the pIC50 at Substance-P receptor was 8.82.

The molecule `FC(F)(F)c1cc(COC[C@@H](NCc2nnc[nH]2)c2ccccc2)cc(C(F)(F)F)c1` showed a pIC50 at Substance-P receptor of 8.30.

As for `O=c1[nH]nc(CN[C@H](COCc2cc(C(F)(F)F)cc(C(F)(F)F)c2)c2ccccc2)[nH]1`, the pIC50 at Substance-P receptor was 8.62.

Take `CN(Cc1nnn(C)n1)[C@H](COCc1cc(C(F)(F)F)cc(C(F)(F)F)c1)c1ccccc1`: at Substance-P receptor, the pIC50 was 7.80.

Take `CCCN(Cc1n[nH]c(O)n1)[C@H](COCc1cc(C(F)(F)F)cc(C(F)(F)F)c1)c1ccccc1`: on Substance-P receptor, the negative logarithm of the IC50 (pIC50) was 8.70.

Molecule `FC(F)(F)c1cc(COC[C@@H](NCc2nn[nH]n2)c2ccccc2)cc(C(F)(F)F)c1` had a pIC50 on Substance-P receptor of 7.64.
